# Test results taken from US11161845B2, “Pyrrolopyridine-aniline compounds for treatment of dermal disorders” (Nflection Therapeutics, Inc., priority 2017, dated 2021).
# Legend:
# hERG channel protein = biological target: T1, hERG channel protein (Homo sapiens, UniProt Q12809); assay: hERG screening assay (Predictor hERG FP); type: binding; conditions: fluorescence polarization tracer displacement
# T1 construct: purchased ThermoFisher PV5365
# Method: hERG screening was conducted using a procedure similar to the procedure described by Piper et al. (Piper, D. R. et al., Assay Drug Dev. Technol. 2008, 6(2):213-223). The Predictor hERG FP assay (available from ThermoFisher, cat. no. PV5365) is a homogenous, fluorescence polarization biochemical-based format utilizing a membrane fraction containing hERG channel protein (Predictor hERG Membrane) and a high affinity, red-fluorescent hERG channel ligand (Predictor hERG Tracer Red). When the Predictor hERG Tracer ligand is bound to the hERG channel it produces high fluorescence polarization values. Compounds that bind to the hERG channel protein (competitors) displace the Predictor hERG Tracer Red resulting in decreased fluorescence polarization values.
# Test compounds were solubilized in DMSO at 100× (or greater) of the desired starting concentration. Screening was conducted with a final concentration of 1% DMSO. For 10-point titrations, 3-fold serial dilutions were performed from the starting concentrations. The assay buffer used was 25 mM HEPES (pH 7.5), 15 mM KCl, 1 mM MgCl2, and 0.05% Pluronic F-127 (available from Sigma-Aldrich).
# Predictor hERG membranes were stored as a 2× stock at −80° C. Each membrane lot was titrated to identify the concentration of membranes required to obtain ˜70% bound tracer. Before setting up the assay the membranes were thawed in a 37° C. water bath and stored at room temperature. To avoid light scatter caused by large membrane particulates the membranes were sonicated until a homogeneous solution free of particulates is obtained. […]
# 384 well untreated low-volume polystyrene microplates (Corning Cat. #4511) were used for the assay. […] The assay plate was read on a fluorescence plate reader (Tecan Safire^2) and the data was analyzed. […]
# Assay blank control wells consisted of Predictor hERG Membranes and Assay Buffer. The blank wells were used for background subtraction of raw parallel and perpendicular fluorescence values prior to the calculation of polarization values. […]
# C57BL/6J mice = assay: In vivo mouse model, skin and systemic toxicity of topical application (survival); conditions: for Survival Rates: twice daily 5 days per week, 10% BSA
# Description: This study was designed to assess the skin toxicity and gross systemic toxicity of twice daily topical administration of a compound disclosed herein, as well as to evaluate the effect of metabolic lability on systemic toxicity.
# Study Objective: The primary objective of this study was to characterize the skin and systemic toxicity of twice daily topical application of a compound disclosed herein, applied for 25 days in mice. Secondary objectives included determination of the 25-day skin and plasma compound levels of formulations containing three dosages of compound of Ex. 2 after application to 10% body surface area (BSA) murine skin; assessment of gross systemic toxicity from the application of compound of Ex. 2 after twice daily application to 10% BSA murine skin for 25 days; and determination of the correlation of skin and plasma compound levels with associated toxicity.
# Mice: 8 week old male C57BL/6J mice (Jackson Laboratories) were shaved prior to start of study and weekly.
# Compound application: Compounds were dissolved in a 50% DMSO/50% propyelene glycol vehicle. 0.125 mL of the following compounds were applied to the shaved dorsal back of mice (10% BSA) twice daily for 5 days per week for a total of 24 days. The second dose was applied 8 hours after first morning dose. All mice were shaved once per week at application site.
# Oral trametinib was dissolved in 0.5% hydroxypropyl methylcellulose (Sigma-Aldrich) and 0.2% Tween-80 (Sigma-Aldrich) and administered by oral gavage (0.2 mL bolus or 10 mg/kg) once daily 5 days per week. These mice were also shaved weekly.
# Weekly (Weeks 0-4): body weight measurements weekly, starting week 0 until experiment end; photographs of dorsal back and face of each mouse weekly, starting week 0 until experiment end; skin; and gross stool analysis assessed weekly for heme color, starting week 0 until experiment end.
# The study planned for the mice to be sacrificed at Day 25.
# Kaplan Meier curves were analyzed to determine progression to skin toxicity for each arm as compared with vehicle. T-test were used to compare compound levels at each dosage. Ki-67+ cells and p-ERK expression were also assessed on a cellular level via immunostaining. Western blots informed semi-quantitative changes in p-ERK expression.
# T1 sequence (Q12809 whole entry): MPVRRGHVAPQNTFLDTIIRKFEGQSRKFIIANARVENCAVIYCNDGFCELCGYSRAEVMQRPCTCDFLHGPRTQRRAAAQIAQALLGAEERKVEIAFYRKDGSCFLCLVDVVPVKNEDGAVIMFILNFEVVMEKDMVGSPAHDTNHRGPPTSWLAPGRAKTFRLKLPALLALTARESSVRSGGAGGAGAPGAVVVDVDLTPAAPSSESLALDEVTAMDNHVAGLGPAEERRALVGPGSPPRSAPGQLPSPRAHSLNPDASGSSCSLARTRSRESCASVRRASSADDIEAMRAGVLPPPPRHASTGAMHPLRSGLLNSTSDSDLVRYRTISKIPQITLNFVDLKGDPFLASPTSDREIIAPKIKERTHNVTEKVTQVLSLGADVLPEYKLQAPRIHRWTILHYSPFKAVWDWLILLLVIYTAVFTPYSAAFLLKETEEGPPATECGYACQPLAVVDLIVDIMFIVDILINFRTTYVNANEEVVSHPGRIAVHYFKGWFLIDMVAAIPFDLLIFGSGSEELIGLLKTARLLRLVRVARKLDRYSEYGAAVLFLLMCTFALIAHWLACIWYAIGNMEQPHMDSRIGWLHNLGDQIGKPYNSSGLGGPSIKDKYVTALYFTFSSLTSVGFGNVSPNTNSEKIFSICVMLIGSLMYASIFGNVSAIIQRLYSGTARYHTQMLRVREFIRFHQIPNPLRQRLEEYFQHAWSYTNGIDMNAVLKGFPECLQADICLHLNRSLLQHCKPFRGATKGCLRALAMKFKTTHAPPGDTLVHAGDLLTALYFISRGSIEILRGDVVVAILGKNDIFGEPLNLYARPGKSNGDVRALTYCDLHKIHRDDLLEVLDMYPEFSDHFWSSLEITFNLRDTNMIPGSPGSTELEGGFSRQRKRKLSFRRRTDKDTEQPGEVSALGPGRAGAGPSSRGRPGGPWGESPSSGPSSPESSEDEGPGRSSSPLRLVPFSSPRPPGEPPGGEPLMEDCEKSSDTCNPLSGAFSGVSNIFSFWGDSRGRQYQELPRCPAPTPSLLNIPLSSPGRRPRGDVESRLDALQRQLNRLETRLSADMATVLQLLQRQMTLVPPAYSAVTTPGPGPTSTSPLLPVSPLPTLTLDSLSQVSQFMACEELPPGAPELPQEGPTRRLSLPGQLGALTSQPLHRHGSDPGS
structure (smiles),measurement,setting,value
"Cn1c(Nc2ccc(I)cc2F)c(C(=O)NOCCO)c2cccnc21 [Example 2, 2-((2-Fluoro-4-iodophenyl)amino)—N-(2-hydroxyethoxy)-1-methyl-1H-pyrrolo[2,3-b]pyridine-3-carboxamide]",IC50,hERG channel protein,> 30 µM
same,Survival Rates,"C57BL/6J mice; topical 0.1%, Day 0",100%
same,Survival Rates,"C57BL/6J mice; topical 0.1%, Day 3",100%
same,Survival Rates,"C57BL/6J mice; topical 0.1%, Day 6",100%
same,Survival Rates,"C57BL/6J mice; topical 0.1%, Day 9",100%
same,Survival Rates,"C57BL/6J mice; topical 0.1%, Day 12",100%
same,Survival Rates,"C57BL/6J mice; topical 0.1%, Day 15",100%
same,Survival Rates,"C57BL/6J mice; topical 0.1%, Day 18",100%
same,Survival Rates,"C57BL/6J mice; topical 0.1%, Day 21",100%
same,Survival Rates,"C57BL/6J mice; topical 0.1%, Day 24",100%
same,Survival Rates,"C57BL/6J mice; topical 0.1%, Day 25",100%
same,Survival Rates,"C57BL/6J mice; topical 0.5%, Day 0",100%
same,Survival Rates,"C57BL/6J mice; topical 0.5%, Day 3",100%
same,Survival Rates,"C57BL/6J mice; topical 0.5%, Day 6",100%
same,Survival Rates,"C57BL/6J mice; topical 0.5%, Day 9",100%
same,Survival Rates,"C57BL/6J mice; topical 0.5%, Day 12",100%
same,Survival Rates,"C57BL/6J mice; topical 0.5%, Day 15",100%
same,Survival Rates,"C57BL/6J mice; topical 0.5%, Day 18",100%
same,Survival Rates,"C57BL/6J mice; topical 0.5%, Day 21",100%
same,Survival Rates,"C57BL/6J mice; topical 0.5%, Day 24",100%
same,Survival Rates,"C57BL/6J mice; topical 0.5%, Day 25",100%
same,Survival Rates,"C57BL/6J mice; topical 1%, Day 0",100%
same,Survival Rates,"C57BL/6J mice; topical 1%, Day 3",100%
same,Survival Rates,"C57BL/6J mice; topical 1%, Day 6",100%
same,Survival Rates,"C57BL/6J mice; topical 1%, Day 9",100%
same,Survival Rates,"C57BL/6J mice; topical 1%, Day 12",100%
same,Survival Rates,"C57BL/6J mice; topical 1%, Day 15",100%
same,Survival Rates,"C57BL/6J mice; topical 1%, Day 18",100%
same,Survival Rates,"C57BL/6J mice; topical 1%, Day 21",100%
same,Survival Rates,"C57BL/6J mice; topical 1%, Day 24",100%
same,Survival Rates,"C57BL/6J mice; topical 1%, Day 25",100%
same,systemic toxicity compared to topical Trametinib,C57BL/6J mice; topical application,less systemic toxicity
same,survival,"C57BL/6J mice; topically applied 0.1%, 0.5%, and 1% formulations, 25 days",All mice survived
